Data taken from PubChem BioAssay (NCI).
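Grown in 96-well plates, cells were treated for 48 hours with each compound at five concentrations. Insufficient inhibition: endpoint recorded as highest concentration tested. TGI marks complete inhibition of growth.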

Experiments:
Assay in all cases: growth of human tumour cells (NCI), 48 h
HL-60(TB) leukemia = system: HL-60(TB) leukemia
OVCAR-4 ovarian = system: OVCAR-4 ovarian
HOP-62 NSCLC = system: HOP-62 NSCLC
UACC-257 melanoma = system: UACC-257 melanoma
SK-MEL-28 melanoma = system: SK-MEL-28 melanoma
DU-145 prostate = system: DU-145 prostate
SK-MEL-2 melanoma = system: SK-MEL-2 melanoma

| Structure (SMILES) | TGI (HL-60(TB) leukemia) [µM] | TGI (OVCAR-4 ovarian) [µM] | TGI (HOP-62 NSCLC) [µM] | TGI (UACC-257 melanoma) [µM] | TGI (SK-MEL-28 melanoma) [µM] | TGI (DU-145 prostate) [µM] | TGI (SK-MEL-2 melanoma) [µM] |
| --- | --- | --- | --- | --- | --- | --- | --- |
| O=c1c(-c2ccccc2)c(SCCN2CCCCCC2)n(-c2ccccc2)c(=S)n1-c1ccccc1 | 46.9 | 53.6 | > 100 | > 100 | > 100 | 66.1 |  |
| NC(N)=NS(=O)(=O)c1ccc(NC(=O)c2cccc3c(NNc4ccc(S(N)(=O)=O)cc4)c4ccccc4nc23)cc1 | 66.2 | > 100 | > 100 | > 100 | > 100 | > 100 | > 100 |
| COC(=O)C1=C(C)NC(C)=C(C(=O)OC)C1c1cccc(N=O)c1 | 25.8 | 26.2 | 56.2 | 30.2 | 30.4 | 29.7 | 30.9 |
| COc1cc2[nH]c(=O)c3cc(-c4ccccc4)cc4c(Cl)nc(c1OC)c2c43 | 12.3 | > 64.4 | > 72.7 | 21.6 | > 100 | > 100 | 38.7 |
| Cn1c2c(c3ccccc31)CCN1C(=O)C34CCCC3CC21S4 (stereo not given) | > 100 | > 100 | > 100 | > 100 | > 100 | > 100 | > 100 |
| CC1(C)OC[C@@H](C[C@H](O)COCc2ccccc2)O1 | > 100 | > 100 | > 100 | > 100 | > 100 | > 100 | > 100 |
| COCC#C[C@@]1(O)CCCCC1CC(OC)OC (stereo not given in full) | > 100 | > 100 | > 100 | > 100 | > 100 | > 100 | > 100 |
| CC(=O)C1(O)CCC2(O)C3(O)CC=C4CC(O)CCC4(C)C3CC(OC(=O)c3ccc(O)cc3)C12C (stereo not given) | > 100 | > 100 | > 100 | > 100 | > 100 | > 100 | > 100 |
| O=C1c2cccnc2S(=O)(=O)N1c1ccc([N+](=O)[O-])cc1 | > 100 | > 100 | > 100 | > 100 | > 100 | > 100 | > 100 |
| Clc1cc(C(c2cc(Cl)sc2Cl)c2cc(Cl)sc2Cl)c(Cl)s1 | > 100 | > 100 | > 100 | > 100 | > 100 | > 100 | > 100 |
| CC(=O)OCC(=O)O[C@@H]1[C@H]2[C@@H](OC(=O)c3ccccc3)[C@@H](C)C[C@]2(O)[C@H](OC(C)=O)[C@@]2(C)C[C@]1(OC(C)=O)C[C@H]1C(=O)C(C)(C)[C@@H](OC(C)=O)[C@@H]12 | > 25 | > 25 | > 25 | > 25 | > 25 | > 25 | > 25 |
| Cc1cn(CCCCCOC(=O)NC(CCCNC(N)=O)C(=O)O)c(=O)[nH]c1=O (stereo not given) | > 100 | > 100 | > 100 | > 100 | > 100 | > 100 | > 100 |
| CCC(=O)Nc1ccc(NS(=O)(=O)c2ccc(Cl)cc2)cc1 | > 100 | > 100 | > 100 | > 100 | > 100 | > 100 | > 100 |
| C=C(C)[C@H]1CC(=O)/C(C)=C\CC/C(C)=C/CC[C@@]2(C)O[C@@H]2C1 | 66.2 | 75.3 | > 100 | > 100 | 64.6 | 33.4 | > 100 |
| CC(C)=CCC12Cc3ccc(O)cc3C(C(C)CN1)C2C (stereo not given) | > 100 | > 100 | > 100 | > 100 | > 100 | > 100 |  |
| CCOc1snc(C(Cl)(Cl)Cl)c1Cl | 37.7 | > 100 | > 100 | 33.9 | 94 | > 100 |  |
| NCCN(CCN(C(=O)Nc1ccccc1)c1ccccc1)C(=O)Nc1ccccc1 | 74.8 |  | 34.8 | 36.4 | 35.9 | 40.1 | 45.2 |
| COc1cccc(N2C(=O)CS(=O)(=O)C2c2cccc(Oc3ccccc3)c2)c1 (stereo not given) | > 100 | > 100 | > 100 | 44.1 | > 100 | > 100 | 38.8 |
| Nc1c(S(N)(=O)=O)cc(S(N)(=O)=O)cc1S(N)(=O)=O |  | > 100 | > 100 | > 100 | > 100 | > 100 |  |
| Cc1ccc(C(=O)Cc2nc3c([nH]c2=O)c(C)nn3-c2ccccc2)c(C)c1 | > 10 | 5.19 | > 10 | > 10 | > 10 | > 10 |  |
| CCOC(=O)Cn1nnc2cc(Nc3c(C)[n+]([O-])c4cc(F)c(OCC)cc4[n+]3[O-])ccc21 | > 100 | > 100 | 89.5 | > 100 | > 100 | > 100 | > 100 |
| COC(=O)C1=C(C(=O)OC)SC(=C2SC3=C(SC(=C4SCCS4)S3)S2)S1 | > 100 |  | > 100 | > 100 | > 100 | > 100 | > 100 |
| O=C1N/N=C\c2ccc(cc2)OCc2cccc(n2)COc2ccc(cc2)/C=N\NC1=O | > 25 | > 25 | > 25 | > 25 | > 25 | > 25 | > 25 |
| CC1CCc2sc3nc4n(c(=O)c3c2C1)CC(C)S4 (stereo not given) |  | > 100 | > 100 | 50.9 | 83.1 | > 100 | 41.1 |
| Cc1cnc2[nH]c(-c3cccc(F)c3)cc(=O)c2c1 | 0.0628 | > 100 | > 100 | > 100 | > 100 | 1.3 |  |
| CCCCCCCCCCCCOCCOCCOCCOCCOCCOCC(=O)NC(Cc1ccccc1)C(=O)Oc1ccc([N+](=O)[O-])cc1 (stereo not given) | > 100 | > 100 | > 100 | > 100 |  |  | 47.9 |
| CN(C)CCNc1c([N+](=O)[O-])sc2ccc(Cl)cc12 | > 100 | > 100 | > 100 |  | > 100 | > 100 | > 100 |
| C[C@H](c1ccccc1)N1C(=O)[C@@H](OCc2ccccc2)[C@H]1[C@H](COC(=O)COCc1ccccc1)OCc1ccccc1 |  |  | > 100 |  | > 100 | > 100 | > 100 |
